# Results published in patent publication US20250312499A1, “KISSPEPTIN RECEPTOR (KISS1R) TARGETED THERAPEUTICS AND USES THEREOF” (priority 2024, published 2025).
# Square brackets hold non-standard residues; d marks the D form. Peptide text beside a SMILES is read from it. * marks the point of attachment. DOTA = O=C(O)CN1CCN(CC(=O)O)CCN(CC(=O)*)CCN(CC(=O)O)CC1; Gly(N-(3-F-4-Me-benzyl)) = Cc1ccc(CNCC(=O)*)cc1F; Butanoyl(4-(4-I-phenyl)) = O=C(CCCc1ccc(I)cc1)*; Api(1-amidino) = N=C(N)N1CCC(N)(C(=O)O)CC1; HO(CH2CH2O)2CH2CH2CO = O=C(CCOCCOCCO)*; 2Nal = N[C@@H](Cc1ccc2ccccc2c1)C(=O)O; d2Nal = N[C@H](Cc1ccc2ccccc2c1)C(=O)O; NBzl(4-I)Gly = O=C(O)CNCc1ccc(I)cc1; dCya = N[C@H](CS(=O)(=O)O)C(=O)O; 4Pal = N[C@@H](Cc1ccncc1)C(=O)O; Cha = N[C@@H](CC1CCCCC1)C(=O)O; 4Amb = NCc1ccc(C(=O)O)cc1; Api = NC1(C(=O)O)CCNCC1; Ahx = NCCCCCC(=O)O; azaGly = NNC(=O)O; βAla = NCCC(=O)O
# Target: human kisspeptin receptor (Homo sapiens (Human), UniProt Q969F8)
# Sequence (Q969F8 whole entry): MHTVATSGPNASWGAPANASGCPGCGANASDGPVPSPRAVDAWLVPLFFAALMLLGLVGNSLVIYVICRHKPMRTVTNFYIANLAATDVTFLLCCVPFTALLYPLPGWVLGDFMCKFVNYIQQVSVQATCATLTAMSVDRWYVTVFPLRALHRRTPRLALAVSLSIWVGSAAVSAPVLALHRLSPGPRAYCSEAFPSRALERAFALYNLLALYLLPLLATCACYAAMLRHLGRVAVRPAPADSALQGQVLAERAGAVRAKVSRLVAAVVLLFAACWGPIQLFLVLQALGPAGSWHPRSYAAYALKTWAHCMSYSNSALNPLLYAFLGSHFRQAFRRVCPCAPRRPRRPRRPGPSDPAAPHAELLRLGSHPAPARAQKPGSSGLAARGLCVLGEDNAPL
# Test: Human KISS1R binding assay (membrane competition binding)
# Settings: 90 min at room temperature; competition with 0.2 nM [125I]-metastin (45-54); Flp-In T-Rex 293 kisspeptin membranes; metal complexes nonradioactive Ga, In, Lu; read-out: hKiSSR Binding Ki (90 min)
# Protocol: Crude membrane fractions are prepared from Flp-In T-Rex 293 (Thermo Fisher) cell line expressing the human kisspeptin receptor. The cells are grown to 85-100% confluence on standard tissue culture dishes in Dulbecco's Modified Eagles Medium (DMEM) (Corning) supplemented with 10% FBS (Gemini), 1% penicillin-streptomycin-glutamine (Gibco), 500 μg/mL hygromycin, and 15 μg/mL blastacidin. 48 hrs prior to preparing membranes 10 μg/ml of tetracycline is added to the culture media to induce receptor expression. To prepare membranes, cells are scraped and collected in 1× Dulbecco's phosphate buffered saline (Corning) and then pelleted at 1000 RPMs. The cell pellet is reconstituted in membrane preparation buffer (20 mM HEPES, 6 mM MgCl2 and 1 mM EGTA, protease inhibitor tablets (Pierce), pH 7.4) and placed in a cell disruption vessel (Parr Instrument company) at 1000 PSI for 30 min on ice. The pressurized contents are then released and spun down at 1000 RPMs and the supernatant is collected and further centrifuged at 15,000 RPMs to pellet the membranes. The membrane pellet is resuspended in membrane preparation buffer, snap frozen and stored at −80° C. for later use.
# The human kisspeptin membrane binding assay utilizes the following components: radiolabel [^125I]-metastin (45-54) (human) (Perkinhmer), crude Flp-In T-Rex 293 kisspeptin membranes, and competing small molecule and peptide ligands. The assay is initiated by combining in assay buffer (50 mM TrisHCl, 5 mM MgCl2, 2 mM EGTA, 10 mM CaCl2, 0.1% BSA, pH 7.4) a dose response of competing ligand (final concentrations are typically 0-10,000 nM), 5-10 μg of Flp-In T-Rex 293 kisspeptin membranes, and 0.2 n M [^125I]-metastin (45-54) in a 96-well assay plate and allowed to incubate 90 minutes at room temperature. Assay contents are then filtered through unifilter CF/C: microplates (PerkinElmer) pre-soaked with 0.5% BSA and washed with 9×400 μL of cold wash buffer (10 mM HEPES, 500 mM NaCl, 0.1% Tween-20, pH7.4). Assay plates are read using a Microbeta^2 (PerkinElmer) and Ki values for compounds are determined using a GraphPad Prism 9.3 non-linear regression analysis.
row,Compound,Ki [nM]
1,Cc1ccc(CNCC(=O)N2CCC(NC(=O)[C@H](CC(C)C)NC(=O)NNC(=O)[C@H](Cc3ccccc3)NC(=O)[C@@H](CC(N)=O)NC(=O)[C@@H](CCC(=O)O)NC(=O)[C@@H](CCC(=O)O)NC(=O)[C@@H](CC(N)=O)NC(=O)[C@@H](CC(N)=O)NC(=O)CCNC(=O)CN3CCN(CC(=O)O)CCN(CC(=O)O)CCN(CC(=O)O)CC3)(C(=O)N[C@@H](Cc3c[nH]c4ccccc34)C(N)=O)CC2)cc1F [Compound 15] ({DOTA-βAla}-[dN][dN][dE][dE][dN]F[azaGly]L[Api](Gly(N-(3-F-4-Me-benzyl)))W-NH2),> 100
2,Cc1ccc(CNCC(=O)N2CCC(NC(=O)[C@H](CC(C)C)SCCNC(=O)[C@H](Cc3ccccc3)NC(=O)CCCCCNC(=O)CN3CCN(CC(=O)O)CCN(CC(=O)O)CCN(CC(=O)O)CC3)(C(=O)N[C@@H](Cc3c[nH]c4ccccc34)C(N)=O)CC2)cc1F [Compound 8],< 10
3,Cc1ccc(CNCC(=O)N2CCC(NC(=O)c3ccc(-c4ccccc4)c(OCCNC(=O)[C@H](Cc4ccccc4)NC(=O)CN4CCC(NC(=O)CN5CCN(CC(=O)O)CCN(CC(=O)O)CCN(CC(=O)O)CC5)CC4)c3)(C(=O)N[C@@H](Cc3c[nH]c4ccccc34)C(N)=O)CC2)cc1F [Compound 214],< 10
4,Cc1ccc(CNCC(=O)N2CCC(NC(=O)[C@H](CC(C)C)NC(=O)NNC(=O)[C@H](Cc3ccccc3)NC(=O)[C@@H](NC(=O)[C@H](CC(N)=O)NC(=O)[C@@H](CCC(=O)O)NC(=O)c3ccc(CNC(=O)CN4CCN(CC(=O)O)CCN(CC(=O)O)CCN(CC(=O)O)CC4)cc3)[C@@H](C)O)(C(=O)N[C@@H](Cc3ccc(O)cc3)C(N)=O)CC2)cc1F [Compound 206] ({DOTA-4Amb}-[dE]NTF[azaGly]L[Api](Gly(N-(3-F-4-Me-benzyl)))Y-NH2),< 10
5,Cc1ccc(CNCC(=O)N2CCC(NC(=O)[C@H](CC(C)C)NC(=O)NNC(=O)[C@H](Cc3ccccc3)NC(=O)[C@@H](NC(=O)[C@H](CC(N)=O)NC(=O)[C@H](Cc3ccc4ccccc4c3)NC(=O)[C@@H](Cc3ccc(O)cc3)NC(=O)CCCCCNC(=O)CN3CCN(CC(=O)O)CCN(CC(=O)O)CCN(CC(=O)O)CC3)[C@@H](C)O)(C(=O)N[C@@H](Cc3c[nH]c4ccccc34)C(N)=O)CC2)cc1F [Compound 118] ({DOTA-Ahx}-[dY][2Nal]NTF[azaGly]L[Api](Gly(N-(3-F-4-Me-benzyl)))W-NH2),< 10
6,Cc1ccc(CNCC(=O)N2CCC(NC(=O)[C@H](CC(C)C)NC(=O)NNC(=O)[C@H](Cc3ccccc3)NC(=O)[C@@H](NC(=O)[C@H](CC(N)=O)NC(=O)[C@@H](Cc3c[nH]c4ccccc34)NC(=O)[C@@H](Cc3c[nH]cn3)NC(=O)[C@@H](Cc3ccc(O)cc3)NC(=O)CCCCCNC(=O)CN3CCN(CC(=O)O)CCN(CC(=O)O)CCN(CC(=O)O)CC3)[C@@H](C)O)(C(=O)N[C@@H](Cc3c[nH]c4ccccc34)C(N)=O)CC2)cc1F [Compound 32] ({DOTA-Ahx}-[dY][dH][dW]NTF[azaGly]L[Api](Gly(N-(3-F-4-Me-benzyl)))W-NH2),< 10
7,Cc1ccc(CNCC(=O)N2CCC(NC(=O)[C@H](CC(C)C)NC(=O)NNC(=O)[C@H](Cc3ccccc3)NC(=O)[C@@H](NC(=O)[C@H](CC(N)=O)NC(=O)[C@@H](Cc3ccc4ccccc4c3)NC(=O)[C@@H](Cc3ccc(O)cc3)NC(=O)CCCCCNC(=O)CN3CCN(CC(=O)O)CCN(CC(=O)O)CCN(CC(=O)O)CC3)[C@@H](C)O)(C(=O)N[C@@H](Cc3c[nH]c4ccccc34)C(N)=O)CC2)cc1F [Compound 304] ({DOTA-Ahx}-[dY][d2Nal]NTF[azaGly]L[Api](Gly(N-(3-F-4-Me-benzyl)))W-NH2),< 10
8,Cc1ccc(CNCC(=O)N2CCC(NC(=O)[C@H](CC(C)C)NC(=O)NNC(=O)[C@H](Cc3ccccc3)NC(=O)[C@@H](NC(=O)[C@H](CCCCNC(=O)CN3CCN(CC(=O)O)CCN(CC(=O)O)CCN(CC(=O)O)CC3)NC(=O)CCOCCOCCO)[C@@H](C)O)(C(=O)N[C@@H](Cc3ccncc3)C(N)=O)CC2)cc1F [Compound 251] ({HO(CH2CH2O)2CH2CH2CO}-K(DOTA)TF[azaGly]L[Api](Gly(N-(3-F-4-Me-benzyl)))[4Pal]-NH2),> 100
9,CC(C)C[C@H](NC(=O)NNC(=O)[C@H](Cc1ccccc1)NC(=O)CCCCCNC(=O)[C@H](Cc1ccc2ccccc2c1)NC(=O)[C@@H](Cc1ccc(O)cc1)NC(=O)CN1CCN(CC(=O)O)CCN(CC(=O)O)CCN(CC(=O)O)CC1)C(=O)NC1(C(=O)N[C@@H](Cc2ccccc2)C(N)=O)CCN(C(=N)N)CC1 [Compound 289] ({DOTA}-[dY][2Nal][Ahx]F[azaGly]L[Api(1-amidino)]F-NH2),< 10
10,Cc1ccc(CNCC(=O)N2CCC(NC(=O)[C@H](CC(C)C)NC(=O)NNC(=O)[C@H](Cc3ccccc3)NC(=O)[C@@H](NC(=O)[C@H](CC(N)=O)NC(=O)[C@H](CCCCNC(=O)CN3CCN(CC(=O)O)CCN(CC(=O)O)CCN(CC(=O)O)CC3)NC(=O)CCOCCOCCO)[C@@H](C)O)(C(=O)N[C@@H](Cc3ccncc3)C(N)=O)CC2)cc1F [Compound 253] ({HO(CH2CH2O)2CH2CH2CO}-K(DOTA)NTF[azaGly]L[Api](Gly(N-(3-F-4-Me-benzyl)))[4Pal]-NH2),< 10
11,Cc1ccc(CNCC(=O)N2CCC(NC(=O)[C@H](CC(C)C)NC(=O)NNC(=O)[C@H](Cc3ccccc3)NC(=O)[C@@H](NC(=O)[C@H](CC(N)=O)NC(=O)[C@@H](Cc3c[nH]c4ccccc34)NC(=O)[C@@H](Cc3ccc(O)cc3)NC(=O)CCCCCNC(=O)[C@@H](CS(=O)(=O)O)NC(=O)CN3CCN(CC(=O)O)CCN(CC(=O)O)CCN(CC(=O)O)CC3)[C@@H](C)O)(C(=O)N[C@@H](Cc3c[nH]c4ccccc34)C(N)=O)CC2)cc1F [Compound 115] ({DOTA}-[dCya][Ahx][dY][dW]NTF[azaGly]L[Api](Gly(N-(3-F-4-Me-benzyl)))W-NH2),< 10
12,CC(C)C[C@H](NC(=O)NNC(=O)[C@H](Cc1ccccc1)NC(=O)[C@@H](NC(=O)[C@H](CC(N)=O)NC(=O)c1ccc(CNC(=O)CN2CCN(CC(=O)O)CCN(CC(=O)O)CCN(CC(=O)O)CC2)cc1)[C@@H](C)O)C(=O)NC1(C(=O)N[C@@H](Cc2ccncc2)C(N)=O)CCN(C(=N)N)CC1 [Compound 272] ({DOTA-4Amb}-NTF[azaGly]L[Api(1-amidino)][4Pal]-NH2),< 10
13,CC(C)C[C@H](NC(=O)NNC(=O)[C@H](Cc1ccccc1)NC(=O)[C@@H](NC(=O)[C@H](CC(N)=O)NC(=O)[C@@H](Cc1ccc2ccccc2c1)NC(=O)[C@@H](Cc1ccc(O)cc1)NC(=O)CCCCCNC(=O)CN1CCN(CC(=O)O)CCN(CC(=O)O)CCN(CC(=O)O)CC1)[C@@H](C)O)C(=O)NC1(C(=O)N[C@H](Cc2c[nH]c3ccccc23)C(N)=O)CCN(C(=O)CNCc2ccc(I)cc2)CC1 [Compound 371] ({DOTA-Ahx}-[dY][d2Nal]NTF[azaGly]L[Api](NBzl(4-I)Gly)[dW]-NH2),< 10
14,CC(C)C[C@H](NC(=O)NNC(=O)[C@H](Cc1ccccc1)NC(=O)[C@@H](NC(=O)[C@H](CC(N)=O)NC(=O)[C@@H](Cc1ccc2ccccc2c1)NC(=O)[C@@H](Cc1ccc(O)cc1)NC(=O)[C@@H](CCCCNC(=O)CCCc1ccc(I)cc1)NC(=O)CCCCCNC(=O)CN1CCN(CC(=O)O)CCN(CC(=O)O)CCN(CC(=O)O)CC1)[C@@H](C)O)C(=O)NC1(C(=O)N[C@@H](Cc2ccccc2)C(N)=O)CCN(C(=N)N)CC1 [Compound 310] ({DOTA-Ahx}-[dK](Butanoyl(4-(4-I-phenyl)))[dY][d2Nal]NTF[azaGly]L[Api(1-amidino)]F-NH2),< 10
15,Cc1ccc(CNCC(=O)N2CCC(NC(=O)[C@H](CC(C)C)NC(=O)NNC(=O)[C@H](Cc3ccccc3)NC(=O)[C@@H](NC(=O)[C@H](CC(N)=O)NC(=O)c3ccc(CNC(=O)CN4CCN(CC(=O)O)CCN(CC(=O)O)CCN(CC(=O)O)CC4)cc3)[C@@H](C)O)(C(=O)N[C@@H](Cc3ccc(O)cc3)C(N)=O)CC2)cc1F [Compound 205] ({DOTA-4Amb}-NTF[azaGly]L[Api](Gly(N-(3-F-4-Me-benzyl)))Y-NH2),< 10
16,Cc1ccc(CNCC(=O)N2CCC(NC(=O)[C@H](CC(C)C)NC(=O)NNC(=O)[C@H](CC3CCCCC3)NC(=O)c3ccc(CNC(=O)CN4CCN(CC(=O)O)CCN(CC(=O)O)CCN(CC(=O)O)CC4)cc3)(C(=O)N[C@@H](Cc3c[nH]c4ccccc34)C(N)=O)CC2)cc1F [Compound 261] ({DOTA-4Amb}-[Cha][azaGly]L[Api](Gly(N-(3-F-4-Me-benzyl)))W-NH2),< 10
17,CSCC[C@H](NC(=O)c1ccc(CNC(=O)CN2CCN(CC(=O)O)CCN(CC(=O)O)CCN(CC(=O)O)CC2)cc1)C(=O)N[C@H](C(=O)NCc1ccc(C(=O)N[C@@H](CCSC)C(=O)N[C@H](C(=O)N[C@@H](CCCCNC(=O)CCCCC(=O)N[C@@H](CC(N)=O)C(=O)N[C@H](C(=O)N[C@@H](Cc2ccccc2)C(=O)NNC(=O)N[C@@H](CC(C)C)C(=O)NC2(C(=O)N[C@@H](Cc3c[nH]c4ccccc34)C(N)=O)CCN(C(=O)CNCc3ccc(C)c(F)c3)CC2)[C@@H](C)O)C(=O)O)C(C)C)cc1)C(C)C [Compound 167],< 10
